In publication PMC10823475, “Design, Synthesis, and Evaluation of Inhibitors of Hedgehog Acyltransferase” (Journal of Medicinal Chemistry, 2024):
Where “and” joins values, the source holds several entries; their conditions need not be identical. Equal values may be shown once.

Assays:
purified HHAT = biological target: T1, purified HHAT (Homo sapiens, UniProt Q5VTY9); assay: Acyl-cLIP assay, inhibition of purified HHAT; type: biochemical; details: for IC50: purified HHAT, read-out: Acyl-cLIP Assay IC50 (CI95); for LLEAcyl-cLIP: from Acyl-cLIP IC50 and clogDpH7.4
T1 construct: made in house
T1 sequence (Q5VTY9 whole entry): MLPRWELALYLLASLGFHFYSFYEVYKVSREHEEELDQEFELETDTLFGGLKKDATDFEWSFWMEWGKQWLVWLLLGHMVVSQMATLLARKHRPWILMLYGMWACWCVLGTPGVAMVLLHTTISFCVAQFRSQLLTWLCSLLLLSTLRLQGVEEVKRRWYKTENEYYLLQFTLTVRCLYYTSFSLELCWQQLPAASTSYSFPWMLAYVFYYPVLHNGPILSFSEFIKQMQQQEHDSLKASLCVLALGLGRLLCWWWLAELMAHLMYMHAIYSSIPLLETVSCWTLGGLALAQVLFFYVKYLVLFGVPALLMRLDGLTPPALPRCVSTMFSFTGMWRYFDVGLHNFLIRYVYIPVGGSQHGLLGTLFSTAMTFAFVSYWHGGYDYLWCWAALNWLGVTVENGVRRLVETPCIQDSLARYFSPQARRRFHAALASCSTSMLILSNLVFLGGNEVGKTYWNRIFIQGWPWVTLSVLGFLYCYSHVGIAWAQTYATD
Description: The inhibitory potency of all 50 compounds against purified HHAT was quantified using the acylation-coupled lipophilic induction of polarization (acyl-cLIP) assay recently developed in our lab, a universally applicable assay for high-throughput analysis of protein–lipid transferases and hydrolases.[31],[40] In brief, in this assay a fluorescently labeled peptide based on the N-terminal sequence of SHH is incubated with N-dodecyl β-D-maltoside (DDM) solubilized purified HHAT, palmitoyl-CoA, and HHAT inhibitors. Binding of the lipidated peptide product to the DDM micelle results in decreased tumbling rate and an increase in polarization of fluorescence emission, enabling facile quantification of HHAT activity. Initially, % HHAT inhibition was determined at 50 μM and 25 μM for all analogues. […] HHAT is a 12-pass TM protein,[14] and we considered whether lipophilicity might bias inhibition; pIC50 values were compared to calculated log D, which indicated no significant correlation (SI, Table S1 and Figure S2). We concluded that lipophilicity is not a general driver of HHAT inhibitory potency.
The acyl-cLIP assay has been described previously.[40] Briefly, SHH-FAM peptide was diluted in buffer A (100 mM MES, 20 mM NaCl, 1 mM DTT, 1 mM TCEP, 0.1% BSA, pH 6.5) to a concentration of 2 μM. Palmitoyl-CoA (Sigma-Aldrich) was diluted in buffer A to 7.5 μM and recombinant HHAT (obtained by following the published protocol[14]) in buffer B (20 mM HEPES, 350 mM NaCl, 1% DDM, 5% glycerol, pH 7.3) diluted to 44 μg/mL. 1.5 μL of a 50 mM inhibitor DMSO stock was diluted with 18.5 μL of DMSO and further serial diluted (1:1). For each condition, 6 μL of the HHAT working stock and […] of the SHH-peptide working stock were mixed with 3 μL of the corresponding inhibitor concentration or DMSO vehicle. Twelve μL/well of this mixture was split into four wells of a black 384 well plate. To start the reaction, 8 μL of the Pal-CoA working stock were added to each well and fluorescence anisotropy and the total fluorescence recorded on an EnVision Xcite 2104 (PerkinElmer) over 30 min (emission filter 1 = FITC FP P-pol 535; emission filter 2 = FITC S-pol 535; excitation filter: FITC FP 480; measurement height = 6.5 mm; detector gain = 0; high concentration gain). Initial rate constants were determined by linear regression and normalized to DMSO control and samples with buffer B instead of HHAT. IC50 values were extracted from the corresponding dose response curves using a “sigmoidal dose response (variable slope)” model in GraphPad Prism 5 (GraphPad Software, Inc.).

[1] = MTS assay, cytotoxicity (72 h); type: cell-based; details: human, HEK293a SHH+ cells, 72 h; for CC50 at 72 h: read-out: MTS Assay (HEK293a SHH+) CC50 (CI95)
Description: (§1) The survival of HEK293a SHH^+ cells is independent of HH signaling,[35] therefore, the cytotoxicity of analogues was tested using the MTS assay to investigate off-target toxicity. In this assay, HEK293a SHH^+ cells were treated with DMSO vehicle or varying concentrations of analogues for 72 h. Subsequently, a mixture of 1-methoxy phenazine methosulfate (PMS) and [3-(4,5-dimethylthiazol-2-yl)-5-(3-carboxymethoxyphenyl)-2-(4-sulfophenyl)-2H-tetrazolium] (MTS) was added to enable quantification of cell number via colorimetric analysis. […] Compounds 3, 17, 19, 32, 34, 38, and 45, which all contain a 2-((2-methylbutyl)amino)acetyl, were toxic to HEK293a SHH^+ cells, as were ureas 26, 40, and 41.
(§2) HEK293a SHH^+ cells were plated at 5000 cells/well in a 96-well plate (Nunc) using a volume of 50 μL/well and cultured for 24 h as described. Cells were treated with 100 μL/well of either DMSO vehicle, Puromycin (2 μg/mL), or stated analogues (0.14–100 μM final) in DMEM supplemented with 10% FBS. After 72 h, 20 μL/well of a mixture of 1-methoxy phenazine methosulfate (PMS) and [3-(4,5-dimethylthiazol-2-yl)-5-(3-carboxymethoxyphenyl)-2-(4-sulfophenyl)-2H-tetrazolium] (MTS) at a ratio of MTS/PMS = 2/0.92 mg/mL in PBS was added and the plates were incubated for 3 h at 37 °C. Subsequently, the absorption at 490 nm was recorded using an EnVision Xcite 2104 (PerkinElmer), and the response was normalized to vehicle control and Puromycin treated samples. Dose response curves were fitted to a “sigmoidal dose response (variable slope)” model using GraphPad Prism 5 (GraphPad Software, Inc.).

HEK293a SHH+ cells = assay: MTS assay, cytotoxicity (72 h); type: cell-based; details: for decrease in cell viability / cell survival: 12.5 μM
Description: as §1, §2

[2] = system: HH signaling (HEK293a SHH+ conditioned media on SHH-Light2 cells); assay: Light2 dual-luciferase cell-based HH signaling assay (Firefly); details: Firefly luciferase, Light2 cells; read-out: HH signaling inhibition EC50 (CI95)
Description: Subsequently, the effect of analogues on HH signaling was investigated using a cellular luciferase reporter assay. Light2 cells derived from NIH3T3 cells constitutively express Renilla luciferase as an internal control for cell density alongside Firefly luciferase under the control of a HH-responsive Gli promoter.[43] HEK293a SHH^+ cells were incubated with varying inhibitor concentrations and SHH-containing conditioned media transferred to the NIH3T3-Light2 cells to mimic paracrine signaling[30],[35] (Figure 6A).
The Light2 cell-based signaling assay has been described previously.[35] Briefly, HEK293a SHH^+ cells were plated at 120,000 cells/well of a 12-well plate in a volume of 1 mL/well and cultured as described above. After 24 h, cells were washed with PBS, followed by addition of 1 mL of media containing 0.2% DMSO or varying inhibitor concentrations in DMSO (0.041–30 μM final). Additionally, SHH-Light2 cells were plated at 20,000 cells/well of a 96-well plate in 50 μL media. After another 24 h, 300 μL of the conditioned media were collected from each well of the treated HEK293a SHH^+ cells, centrifuged at 1000g for 10 min to remove detached cells and split into three wells of the SHH-Light2 cells (100 μL/well; 150 μL final volume in each well). The treated Light2 cells were cultured for another 48 h and subsequently washed with PBS. Firefly and Renilla luciferase activity was measured using the Dual-Luciferase reporter system (Promega Corporation, USA). Then 20 μL of 1× passive lysis buffer were added to each well. After 30 min at RT, 5 μL of each lysate were transferred to a white opaque 96-well plate. Then 20 μL/well of luciferase assay reagent II was added and the luminescence immediately recorded using a SpectraMax i3x plate reader (Molecular Devices LLC). Subsequently, 20 μL/well of 1× Stop&Glo substrate in Stop&Glo buffer was added and the luminescence immediately recorded for a second time. Data was evaluated using a “sigmoidal dose response (variable slope)” model in GraphPad Prism 5 (GraphPad Software, Inc.). The luminescence signal of the Firefly luciferase was normalized to the DMSO vehicle (100%) and the unconditioned media (0%) controls.

[3] = PAMPA parallel artificial membrane permeability assay; details: for recovery at 16 h, 10 µM / Papp at 16 h, 10 μM: PAMPA
Description: Passive diffusion was estimated using the PAMPA method. […] The donor plate was a MultiScreen-IP Plate with 0.45 μm hydrophobe Immobilon-P Membrane (Millipore, #MAIPNTR10) and the acceptor plate was a MultiScreen 96-well Transport Receiver Plate (Millipore, #MATRNPS50). […] Acceptor pH was 7.4. All samples were analyzed against an external, matrix-matched, standard curve by LC-MS/MS with a Waters (Elstree, Herts. UK) Acquity H-class LC system coupled to a Waters TQ-S mass spectrometer. Permeability values (cm/s) were calculated using the following equation: [drawing 2] and VD = volume of donor; VA = volume of acceptor; area = surface area of the membrane · porosity.

[4] = pH 5, PAMPA Papp pH 5, donor pH 5, 10 µM
[5] = pH 5, PAMPA Permeability Class pH 5, donor pH 5, 10 µM

Row | SMILES | HHAT inhibition in the acyl-cLIP assay (purified HHAT) | inhibition at 25 µM (purified HHAT) [%] | inhibition at 50 µM (purified HHAT) [%] | IC50 (purified HHAT) | LLEAcyl-cLIP (purified HHAT) | CC50 at 72 h [1] [µM] | viability at 72 h, 12.5 µM [1] [%] | viability at 72 h, 25 µM [1] [%] | toxicity to HEK293a SHH+ cells (HEK293a SHH+ cells) | EC50 [2] [µM] | other results
1 | CC(C)CCNC(=O)N1CCc2ccccc2C1c1ccccc1 (stereo not shown) [Compound 40, N-Isopentyl-1-phenyl-3,4-dihydroisoquinoline-2(1H)-carboxamide] | inactivity | 0 | 4 ± 5 | > 25 µM | – | 1.8 | 14 ± 4 | 12 ± 3 | toxic | – | –
2 | CC(C)(C)NCC(O)COc1cccc2c1CC(O)C(O)C2 (stereo not shown) [Nadolol, reference compound] | – | – | – | – | – | – | – | – | – | – | recovery at 16 h, 10 µM ([3]; pH 5): 97%; Papp at 16 h, 10 μM [3, 4]: < 0.4 ×10⁻⁶ cm/s; Papp at 16 h, 10 μM [3, 5]: < 5 ×10⁻⁶ cm/s; Papp at 16 h, 10 μM ([3]; pH 6.5, PAMPA Papp pH 6.5, donor pH 6.5, 10 µM): < 0.4 ×10⁻⁶ cm/s; Papp at 16 h, 10 μM ([3]; pH 6.5, PAMPA Permeability Class pH 6.5, donor pH 6.5, 10 µM): < 5 ×10⁻⁶ cm/s; recovery at 16 h, 10 µM ([3]; pH 7.4): 135%; Papp at 16 h, 10 μM ([3]; pH 7.4, PAMPA Papp pH 7.4, donor pH 7.4, 10 µM): < 0.3 ×10⁻⁶ cm/s; Papp at 16 h, 10 μM ([3]; pH 7.4, PAMPA Permeability Class pH 7.4, donor pH 7.4, 10 µM): < 5 ×10⁻⁶ cm/s
3 | O=c1ccc2ccccc2o1 [Coumarin, reference compound] | – | – | – | – | – | – | – | – | – | – | recovery at 16 h, 10 µM ([3]; pH 5): 99%; Papp at 16 h, 10 μM [3, 4]: 124 ×10⁻⁶ cm/s; Papp at 16 h, 10 μM [3, 5]: > 20 ×10⁻⁶ cm/s; recovery at 16 h, 10 µM ([3]; pH 6.5): 99%; recovery at 16 h, 10 µM ([3]; pH 7.4): 114%; PAMPA Papp pH 6.5 ([3]; donor pH 6.5, 10 µM): >eqm; PAMPA Permeability Class pH 6.5 ([3]; donor pH 6.5, 10 µM): >eqm; PAMPA Papp pH 7.4 ([3]; donor pH 7.4, 10 µM): >eqm; PAMPA Permeability Class pH 7.4 ([3]; donor pH 7.4, 10 µM): >eqm
4 | COCCNC(=O)N1CCc2ccccc2C1c1ccccc1 (stereo not shown) [Compound 41, N-(2-Methoxyethyl)-1-phenyl-3,4-dihydroisoquinoline-2(1H)-carboxamide] | inactivity | 0 | 27 ± 3 | > 25 µM | – | 20.2 | 83 ± 3 | 53 ± 2 | toxic | – | –
5 | C=CC(=O)N1CCn2cccc2C1c1ccccc1 (stereo not shown) [Compound 46, 1-(1-Phenyl-3,4-dihydropyrrolo[1,2-a]pyrazin-2(1H)-yl)prop-2-en-1-one] | loss of potency | 7 ± 1 | 12 ± 1 | > 25 µM | – | > 100 | 96 ± 2 | 97 ± 2 | – | – | –
6 | Cc1cccc(C2NCCc3sccc32)c1 (stereo not shown) [Compound 14] | inactive | 5 ± 3 | -16 ± 16 | > 25 µM | – | – | 72 ± 3 | 74 ± 3 | – | – | –

More lines, main results first:

Row | HHAT inhibition in the acyl-cLIP assay (purified HHAT) | inhibition at 25 µM (purified HHAT) [%] | inhibition at 50 µM (purified HHAT) [%] | IC50 (purified HHAT) | LLEAcyl-cLIP (purified HHAT) | SMILES | CC50 at 72 h [1] [µM] | viability at 72 h, 12.5 µM [1] [%] | viability at 72 h, 25 µM [1] [%] | toxicity to HEK293a SHH+ cells (HEK293a SHH+ cells) | EC50 [2] [µM] | other results
7 | – | 51 ± 7 | 62 ± 8 | 15 µM | 0.66 | C=CC(=O)N1CCc2sccc2C1c1cccc(C)c1 (stereo not shown) [Compound 16] | 19.8 | 51 ± 1 | 34 ± 3 | – | 2.96 | –
8 | – | 68 ± 4 | 81 ± 2 | 11.9 µM | 2.21 | COc1ccccc1C1c2ccsc2CCN1C(C)=O (stereo not shown) [Compound 31] | 16.5 | 60 ± 4 | 23 ± 1 | – | > 30 | –
9 | – | 92 ± 1 | 93 ± 1 | – | 3.35 | CCC(C)CNCC(=O)N1CCc2sccc2C1c1ccccc1O (stereo not shown) [Compound 34, 1-(4-(2-Hydroxyphenyl)-6,7-dihydrothieno[3,2-c]pyridin-5(4H)-yl)-2-((2-methylbutyl)amino)ethan-1-one] | 6.1 | 24 ± 1 | 20 ± 1 | toxic | – | –
10 | – | 49 ± 1 | 72 ± 1 | 24 µM and 23.7 µM | 2.73 | CC(=O)N1CCc2sccc2C1c1ccccn1 (stereo not shown) [Compound 18] | > 100 | 97 ± 2 | 98 ± 2 | – | – | decrease in cell viability / cell survival (HEK293a SHH+ cells): < 30%
11 | – | 72 ± 3 | 82 ± 3 | 13.4 µM | 2.84 | CC(=O)N1CCc2sccc2C1c1cccc(C)n1 (stereo not shown) [Compound 21] | > 100 | 98 ± 4 | 94 ± 3 | – | 5.46 | –
12 | – | 80 ± 5 | 86 ± 4 | 4.62 µM | 3.90 | Cc1cccc(C2c3ccsc3CCN2C(=O)CNCCC(C)C)n1 (stereo not shown) [Compound 25] | 15.3 | 74 ± 2 | 27 ± 4 | – | 4.25 | –
13 | – | 52 ± 3 | 63 ± 4 | 1.44 µM | 3.16 | CCC(C)CNCC(=O)N1CCc2sccc2C1COc1cccc(C)c1 (stereo not shown) [Compound 3] | 8.4 | 31 ± 2 | 12 ± 3 | toxic | – | fold more potent than analogues 19, 32, and 34 (purified HHAT; meta-methyl on 4-position aromatic ring): 2–5 fold; decrease in cell viability / cell survival (HEK293a SHH+ cells): 69%
